Measurements reported in US20230165252A1, “ACTIVE COMPOUND COMBINATIONS” (Bayer Aktiengesellschaft, priority 2020, published 2023).

assay: Measurement of Log P values by HPLC on reversed phase columns (EEC directive 79/831 Annex V.A8), methods [a], [b], [c]; assay type: physicochemical; details: HPLC method [a]
Description: Measurement of Log P values as provided herein was performed according to EEC directive 79/831 Annex V.A8 by HPLC (High Performance Liquid Chromatography) on reversed phase columns with the following methods: • ^[a]

| Compound | LogP |
| --- | --- |
| O=C(NCC(F)c1ccc(Br)cc1Cl)c1cc(Cl)nnc1Oc1cccc(C2CC2)c1 (racemic) [I-362] | 4.87^[a] |
| Cc1nnc(Oc2cccc(C(F)F)c2F)c(C(=O)NCC(F)c2ccc(Br)cc2Cl)c1C (racemic) [I-369] | 3.65^[a] |

same assay, conditions: HPLC on reversed phase column, method [a]

| Compound | LogP |
| --- | --- |
| Cc1cc(C(=O)NC2CCOc3c(C)cccc32)c(Oc2cccc(C(F)(F)F)c2)nn1 (racemic) [I-107] | 3.65^[a] |
| Cc1ccc(C(F)CNC(=O)c2c(Oc3cccc(C4CC4)c3F)nnc(C)c2C)c(C)c1 (racemic) [I-836] | 3.78^[a] |

same assay, conditions: method [a]

| Compound | LogP |
| --- | --- |
| Cc1ccc(C(F)(F)CNC(=O)c2c(Oc3cccc(C(F)(F)F)c3)nnc(Cl)c2NC2CC2C2CC2)c(C)c1 (mixture of isomers) [I-812] | 4.87^[a] |
| O=C(NC1CCCc2ccsc21)c1cc(Cl)nnc1Cl (racemic) [Compound 3-16] | 2.60^[a] |
| CC(NC(=O)c1cc(Cl)nnc1Cl)c1cn(C)c2ccccc12 (racemic) [Compound 3-18] | 2.71^[a] |
| Cc1ccc(C(F)CNC(=O)c2c(Cl)nnc(Cl)c2C)c(Cl)c1 (racemic) [Compound 3-23] | 3.22^[a] |
| O=C(NCC1CNc2ccccc21)c1cc(Cl)nnc1Oc1cccc(C(F)(F)F)c1 (racemic) [I-436] | 2.42^[a] |
| O=C(NC1CCCc2sc(Cl)cc21)c1cc(Cl)nnc1Oc1cccc(C(F)(F)F)c1 (racemic) [I-639] | 4.68^[a] |
| Cc1ccc(C(F)(F)CNC(=O)c2c(Oc3cccc(C(F)(F)F)c3)nnc(Cl)c2OCC2CC2(F)F)c(C)c1 (racemic) [I-683] | 4.95^[a] |
| O=C(NCC(F)c1ccc(Cl)cc1Cl)c1c(Oc2cccc(C3CC3)c2F)nnc(Cl)c1I (racemic) [I-758] | 4.73^[a] |
| Cc1ccc(C(F)(F)CNC(=O)c2cc([S+](C)[O-])nnc2Oc2cccc(C(F)(F)F)c2)c(C)c1 (racemic) [I-781] | 3.65^[a] |
| O=C(NCC(F)c1ccc(Cl)cc1Cl)c1c(Oc2cccc(C3CC3)c2F)nnc(Cl)c1O (racemic) [I-782] | 5.13^[a] |
| Cc1ccc(C(F)(F)CNC(=O)c2cc(C3CCOC3)nnc2Oc2cccc(C(F)(F)F)c2)c(C)c1 (racemic) [I-794] | 3.78^[a] |

same assay, conditions: method [a]: LC-UV, acidic range, 0.1% formic acid in water and acetonitrile as eluent (10% to 95% acetonitrile); Table 3, compounds of formula (1)

| Compound | LogP |
| --- | --- |
| Cc1c(Cl)nnc(Oc2cccc(C3CC3(F)F)c2)c1C(=O)O (racemic) [Compound 1-105] | 1.69^[a] |
| Cc1c(Cl)nnc(Oc2cccc(C3CC3)c2F)c1C(=O)O [Compound 1-005] | 1.84^[a] |
| N#Cc1cc(C(=O)O)c(Oc2cccc(C(F)(F)F)c2)nn1 [Compound 1-007] | 1.74^[a] |
| Cc1nnc(Oc2cccc(C(F)(F)F)c2F)c(C(=O)O)c1C [Compound 1-009] | 1.40^[a] |
| CC(C)OC(=O)c1cc(Cl)nnc1Oc1cccc(F)c1F [Compound 1-011] | 3.65^[a] |
| O=C(O)c1cc(C2CC2)nnc1Oc1cccc(C(F)F)c1 [Compound 1-012] | 1.68^[a] |
| Cc1nnc(Oc2cccc(C(F)F)c2F)c(C(=O)O)c1C [Compound 1-013] | 0.96^[a] |
| C#Cc1cccc(Oc2nnc(Cl)cc2C(=O)O)c1 [Compound 1-017] | 1.50^[a] |
| Cc1nnc(Oc2cccc(Cl)c2)c(C(=O)O)c1C [Compound 1-018] | 0.80^[a] |
| Cc1cc(C(=O)O)c(Oc2cncc(C(F)(F)F)c2)nn1 [Compound 1-019] | 1.01^[a] |
| O=C(O)c1cc(-c2ccncc2Cl)nnc1Oc1cccc(C(F)F)c1F [Compound 1-020] | 1.86^[a] |
| O=C(O)c1cc(N2CCCC2)nnc1Oc1cccc(C(F)(F)F)c1 [Compound 1-021] | 1.08^[a] |
| O=C(O)c1cc(Cl)nnc1Oc1cccc(F)c1F [Compound 1-024] | 1.65^[a] |
| O=C(O)c1cc(Cl)nnc1Oc1cncc(C(F)(F)F)c1 [Compound 1-025] | 1.31^[a] |
| Cc1nnc(Oc2cccc(C3CC3)c2)c(C(=O)O)c1C [Compound 1-037] | 1.10^[a] |
| O=C(O)c1cc(C2CC2)nnc1Oc1cccc(C(F)(F)F)c1 [Compound 1-043] | 1.90^[a] |
| O=C(O)c1cc(Cl)nnc1Oc1cccc(Br)c1 [Compound 1-048] | 1.66^[a] |
| CC(C)OC(=O)c1cc(-n2ccnc2)nnc1Oc1cccc(C(F)(F)F)c1 [Compound 1-050] | 2.55^[a] |
| O=C(O)c1cc(-c2ccncc2Cl)nnc1Oc1cccc(F)c1F [Compound 1-053] | 1.22^[a] |
| O=C(O)c1cc(C(F)(F)F)nnc1Oc1cccc(C(F)(F)F)c1 [Compound 1-057] | 2.27^[a] |
| CC(C)OC(=O)c1cc(-c2ccncc2Cl)nnc1Oc1cccc(F)c1F [Compound 1-074] | 3.65^[a] |
| Cc1nnc(Oc2cccc(C3CC3)c2F)c(C(=O)O)c1C [Compound 1-077] | 1.31^[a] |
| COC(=O)c1c(Oc2cccc(C(F)(F)F)c2)nnc(Cl)c1-n1cccn1 [Compound 1-084] | 3.53^[a] |
| CC(=O)c1cccc(Oc2nnc(Cl)cc2C(=O)O)c1 [Compound 1-093] | 1.01^[a] |
| Cc1cc(C(=O)O)c(Oc2cccc(C(F)F)c2)nn1 [Compound 1-098] | 1.36^[a] |
| CC(C)OC(=O)c1cc(Cl)nnc1Oc1cncc(C(F)F)c1 [Compound 1-102] | 2.82^[a] |

same assay, conditions: method [a]: LC-UV, acidic range, 0.1% formic acid in water and acetonitrile as eluent; Table 5, compounds of formula (2)

| Compound | LogP |
| --- | --- |
| NCC(F)c1ccc(I)cc1 (racemic) [Compound 2-05] | 0.73^[a] |
| Cc1cc(C(F)F)ccc1C(F)CN (racemic) [Compound 2-06] | 0.69^[a] |
| NCC(F)c1ccc(C2CC2)cc1Cl (racemic) [Compound 2-07] | 1.15^[a] |

same assay, conditions: method [b]: LC-UV, neutral range, 0.001 molar ammonium acetate solution in water and acetonitrile as eluent (10% to 95% acetonitrile); Table 3, compounds of formula (1)

| Compound | LogP |
| --- | --- |
| O=C(O)c1cc(Cl)nnc1Oc1cccc(C(F)(F)F)n1 [Compound 1-031] | 0.69^[b] |
| O=C(O)c1cc(Cl)nnc1Oc1cncc(C2CC2)c1 [Compound 1-051] | 0.59^[b] |

same assay, conditions: reversed-phase HPLC column, method [a]

| Compound | chromatographic logP |
| --- | --- |
| CC(=O)c1cc(C(=O)NCC(F)c2ccc(Br)cc2Cl)c(Oc2cccc(C(F)(F)F)c2)nn1 (racemic) [Compound I-605, 6-acetyl-N-[rac-2-(4-bromo-2-chloro-phenyl)-2-fluoro-ethyl]-3-[3-(trifluoromethyl)phenoxy]pyridazine-4-carboxamide] | 4.49 |

same assay, conditions: reversed-phase HPLC column, method [a]: LC-UV, acidic range, 0.1% formic acid in water and acetonitrile as eluent (10% to 95% acetonitrile); Table 3, compounds of formula (1)

| Compound | chromatographic logP |
| --- | --- |
| COC(=O)c1c(Oc2cccc(C(F)(F)F)c2)nnc(Cl)c1C1CC1 [Compound 1-001] | 3.94 |
| Cc1c(Cl)nnc(Oc2cccc(Cl)c2)c1C(=O)O [Compound 1-002, 6-chloro-3-(3-chlorophenoxy)-5-methyl-pyridazine-4-carboxylic acid] | 1.39 |
| CSc1cc(C(=O)O)c(Oc2cccc(C(F)(F)F)c2)nn1 [Compound 1-004, 6-methylsulfanyl-3-[3-(trifluoromethyl)phenoxy]pyridazine-4-carboxylic acid] | 2.25 |
| COC(=O)c1c(Oc2cccc(C(F)F)c2F)nnc(C)c1C [Compound 1-006] | 2.64 |
| COCCc1c(Cl)nnc(Oc2cccc(C(F)(F)F)c2)c1C(=O)O [Compound 1-026, 6-chloro-5-(2-methoxyethyl)-3-[3-(trifluoromethyl)phenoxy]pyridazine-4-carboxylic acid] | 1.74 |
| COC(=O)c1c(Oc2cccc(Cl)c2)nnc(Cl)c1C [Compound 1-033, methyl 6-chloro-3-(3-chlorophenoxy)-5-methyl-pyridazine-4-carboxylate] | 3.37 |
| CCOC(=O)c1cc(C)nnc1Oc1cncc(C(F)(F)F)c1 [Compound 1-036] | 2.37 |
| COC(=O)c1c(Oc2cccc(Cl)c2)nnc(C)c1C [Compound 1-042] | 2.71 |
| COC(=O)c1c(Oc2cccc(C(F)(F)F)c2)nnc(Cl)c1OC [Compound 1-046] | 3.52 |
| COC(=O)c1c(Oc2cccc(C(F)(F)F)c2)nnc(Cl)c1Cl [Compound 1-049] | 3.86 |
| COC(=O)c1c(Oc2cccc(C(F)F)c2F)nnc(Cl)c1Cl [Compound 1-055] | 3.51 |
| CCOC(=O)c1c(Oc2cccc(C3CC3)c2)nnc(Cl)c1Cl [Compound 1-056] | 4.41 |
| CCOC(=O)c1c(Oc2cccc(C(F)(F)F)c2)nnc(Cl)c1OCC [Compound 1-060] | 4.23 |
| COC(=O)c1c(Oc2cccc(C(F)(F)F)c2F)nnc(Cl)c1Cl [Compound 1-064] | 3.96 |
| C=Cc1c(Cl)nnc(Oc2cccc(C(F)(F)F)c2)c1C(=O)OC [Compound 1-069, methyl 6-chloro-3-[3-(trifluoromethyl)phenoxy]-5-vinyl-pyridazine-4-carboxylate] | 3.94 |
| COC(=O)c1cc(Cl)nnc1Oc1cccc(C(F)(F)F)n1 [Compound 1-071] | 2.69 |
| COC(=O)c1cc(Cl)nnc1Oc1cccc(C(F)(F)F)c1 [Compound 1-079] | 3.27 |
| CCOC(=O)c1cc(SC)nnc1Oc1cccc(C(F)(F)F)c1 [Compound 1-083] | 3.96 |
| COC(=O)c1c(Oc2cccc(C(F)(F)F)c2)nnc(Cl)c1-c1ccccc1 [Compound 1-085] | 4.25 |
| COC(=O)c1cc(Cl)nnc1Oc1cncc(Br)c1 [Compound 1-086] | 2.33 |
| CCOC(=O)c1cc(Cl)nnc1Oc1cncc(C(F)(F)F)c1 [Compound 1-088] | 3 |
| COC(=O)c1cc(Cl)nnc1Oc1cccc(C2CC2)c1F [Compound 1-099] | 3.45 |
| COC(=O)c1cc(C)nnc1Oc1cccc(C2CC2)c1F [Compound 1-100] | 2.89 |
| COC(=O)c1c(Oc2cccc(C3CC3)c2F)nnc(Cl)c1C [Compound 1-101] | 3.7 |
| CCOC(=O)c1cc(C)nnc1Oc1cccc(C2CC2)c1F [Compound 1-112] | 3.29 |

same assay, conditions: reversed-phase HPLC column; method [b]: LC-UV, neutral range, 0.001 molar ammonium acetate solution in water and acetonitrile as eluent (10% to 95% acetonitrile); Table 3, compounds of formula (1)

| Compound | chromatographic logP |
| --- | --- |
| CCOC(=O)c1cc(Cl)nnc1Oc1cncc(C2CC2)c1 [Compound 1-076] | 2.6 |
